Results published in publication PMC9851200, “Multiparameter phenotypic screening for endogenous TFEB and TFE3 translocation identifies novel chemical series modulating lysosome function” (Autophagy, 2022).

Tests used:
endogenous TFEB = test: TFEB nuclear translocation, immunocytochemistry high-content imaging; assay type: cell-based
endogenous TFE3 = test: TFE3 nuclear translocation, immunocytochemistry high-content imaging; assay type: cell-based
SH-SY5Y cells [1] = system: SH-SY5Y cells; note: reference of the scale not given here
SH-SY5Y cells [2] = conditions: human, SH-SY5Y cells, 24 h, 1 µM
SH-SY5Y cells [3] = conditions: human, SH-SY5Y cells, 24 h, 1 µM; remark: listed apart in the source

Row | AK (SH-SY5Y cells [2]) | Nuclear Count (SH-SY5Y cells [3]) | Structure (SMILES) | TFEB % (endogenous TFEB) | TFE3 % (endogenous TFE3) | DQ Intensity (SH-SY5Y cells [1]) | DQ Spot (SH-SY5Y cells [1])
1 | 109.29 | 105.01 | O=C(Nc1n[nH]c2cc(-c3ccoc3)ccc12)C1CC1 [SB-738481] | 6.46% | 12.05% | 82.31 | 113.23
2 | 80.83 | 130.73 | O=C(Nc1n[nH]c2nc(-c3nccs3)c(Br)cc12)C1CC1 [SB-742251] | 12.43% | 5.59% | 109.29 | 109.81
3 | 69.40 | 69.12 | O=C(Nc1n[nH]c2nc(-c3nccs3)c(Br)cc12)C1CCCC1 [SB-742609] | 8.05% | 7.93% | 95.35 | 108.28
4 | 91.49 | 111.90 | O=C(Nc1n[nH]c2nc(-c3cccs3)c(Br)cc12)C1CCCC1 [SB-743341] | 21.21% | 12.29% | 118.79 | 104.54
5 | 67.98 | 91.66 | COc1cccc(C2=C(Nc3ccc(Cl)c(C(=O)O)c3)C(=O)NC2=O)c1 [UNC10225038A] | 4.97% | 15.59% | 120.07 | 110.06

The remaining lines, values behind:

Row | Structure (SMILES) | AK (SH-SY5Y cells [2]) | Nuclear Count (SH-SY5Y cells [3]) | TFEB % (endogenous TFEB) | TFE3 % (endogenous TFE3) | DQ Intensity (SH-SY5Y cells [1]) | DQ Spot (SH-SY5Y cells [1])
6 | O=C(Nc1n[nH]c2nc(-c3ccccc3)c(Br)cc12)C1CC1 [SB-708998] | 115.51 | 73.65 | 9.86% | 9.05% | 93.68 | 102.39
7 | O=C(Nc1n[nH]c2nc(-c3ccccc3)ccc12)C1CC1 [SB-708999] | 67.50 | 127.54 | 6.34% | 15.72% | 102.03 | 111.17
8 | COc1cccc(-c2ccc3c(NC(=O)C4CC4)n[nH]c3n2)c1 [SB-710903] | 104.06 | 105.81 | 9.14% | 8.53% | 82.25 | 92.88
9 | COc1ccccc1-c1ccc2c(NC(=O)C3CC3)n[nH]c2n1 [SB-711239] | 73.81 | 104.88 | 3.98% | 10.01% | 73.89 | 92.69
10 | O=C(Nc1n[nH]c2nc(-c3ccccc3O)ccc12)C1CC1 [SB-711880] | 88.20 | 102.12 | 4.35% | 12.20% | 70.14 | 92.53
11 | O=C(Nc1n[nH]c2cc(-c3cccs3)ccc12)C1CC1 [SB-731284] | 71.30 | 98.09 | 12.38% | 10.84% | 119.55 | 107.15
12 | CCN1CCN(CCCC(=O)Nc2n[nH]c3nc(-c4ccc(O)cc4)c(Br)cc23)CC1 [SB-731579] | 91.62 | 67.01 | 17.61% | 6.82% | 115.44 | 103.09
13 | O=C(Nc1n[nH]c2cc(-c3ccsc3)ccc12)C1CC1 [SB-732932] | 126.66 | 130.18 | 11.50% | 8.30% | 63.56 | 84.83
14 | O=C(Nc1n[nH]c2nc(-c3cccs3)c(Br)cc12)C1CC1 [SB-735297] | 112.72 | 125.04 | 7.45% | 10.45% | 103.59 | 106.97
15 | O=C(Nc1n[nH]c2cc(-c3cccc(F)c3)ccc12)C1CC1 [SB-735464] | 75.61 | 95.28 | 2.08% | 14.17% | 82.14 | 107.31
